The results in this text go back to PubChem BioAssay AID720587 (Broad Institute, 2013).

SMILES strings stand for the structures. The source made the active and inactive calls.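 The calls were made as follows: active = fitted curve reaches -35% activity change at a concentration below twice the top valid dose tested; inactive = the rest, including effects opposite to the expected direction.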

Assay [1] can be described thus: A673 Ewing sarcoma viability loss – cell-based, CellTiter-Glo luminescence, cherry-pick retest, confirmation (AID 720587). The following applies: A673 Ewing sarcoma viability, CellTiter-Glo ATP luminescence, 72 h; at 26 µM (top of the series). For orientation: In ATP-based viability assays light output follows the ATP content of the culture.
Assay [2] has as its system A673 Ewing sarcoma viability, CellTiter-Glo ATP luminescence, 72 h. The assay is described as above.

For `O=C1CCCC2=C1C(c1ccccn1)Nc1ccc(C(=O)c3ccccc3)cc1N2` (stereo not given), the activity change, negative = cytotoxicity in assay [1] was 3.59% (inactive).
On the same count and under the same terms, in the case of `C[C@@H]1CN([C@H](C)CO)C(=O)c2cc(C#CCc3ccccc3)cnc2O[C@@H]1CN(C)Cc1cccc(F)c1` it was -13.4% (inactive).
Still for that read-out and setting: the result for `N#C[C@H]1[C@H](c2ccc(C#Cc3ccccc3F)cc2)[C@@H](CO)N1C(=O)C1CCOCC1` reads -1.72% (inactive); that for `COc1ccc(NC(=O)c2cc3ccccc3oc2=O)cc1`, -20.8% (inactive); that for `COc1cc(/C=N/NC(=O)c2csc3c2CCCC3)cc(OC)c1O`, 0.143% (inactive).
Same read-out and setting: in the case of `O=C(NC1CCCC1)C(c1ccccc1)n1c(CSCCOc2ccccc2)nc2ccccc21` (stereo not given) it was -7.19% (inactive); in that of `CN(C)c1ccc(N=Nc2ccccc2Br)cc1`, -10.3% (inactive); in that of `COc1ccc2oc(C(=O)NCCc3ccccc3)c(C)c2c1`, -2.64% (inactive).
As to `O=C(CCCCl)Nc1nc(-c2ccc3c(c2)OCCO3)cs1`, the activity change, negative = cytotoxicity in assay [1] was 10.2% (inactive).
On the same count and under the same terms, in the case of `CC(=O)c1ccc(N=C2C(=O)Nc3ccccc32)cc1` it was -4.29% (inactive); in that of `Cc1c(CC(=O)NCCCC(=O)O)c(=O)oc2cc3c(cc12)CCC(C)(C)O3`, -4.88% (inactive); in that of `CCOC(=O)Cc1csc(NC(=S)NC(=O)c2ccc(C)cc2)n1`, -1.19% (inactive).
Same read-out and setting: the result for `COc1cccc(S(=O)(=O)N(C)C[C@H]2OCc3cnnn3CCCC(=O)N([C@@H](C)CO)C[C@H]2C)c1` reads 0.226% (inactive).
Same read-out and setting: in the case of `O=C(CCCN1C(=O)/C(=C/c2ccccc2Cl)SC1=S)NNC(=O)c1ccc(Cl)cc1Cl` it was -0.616% (inactive); in that of `C[C@H]1CN([C@@H](C)CO)C(=O)c2cc(NS(=O)(=O)c3ccc(Cl)cc3)ccc2O[C@H]1CN(C)Cc1ccc(Cl)c(Cl)c1`, 4.93% (inactive).
With `COC(=O)c1cccc(NC(=O)NC(=O)c2ccc(Cl)cc2)c1`, in assay [1], the activity change, negative = cytotoxicity was -6.08% (inactive).
The same measure, in the same setting: the result for `COc1ccc(C(=O)NCCNc2nc3cc(C)cc(C)c3cc2C#N)c(OC)c1` reads 0.961% (inactive); that for `COc1cc(OC)cc(-c2cc3nc(C)c(CCC(=O)NCc4ccccc4)c(C)n3n2)c1`, 6.68% (inactive).
Same read-out and setting: the result for `COc1ccccc1/C=C1\SC(=S)N(CCC(=O)Nc2cc(C)on2)C1=O` reads 6.59% (inactive); that for `CCOC(=O)C1CCCCN1C(=O)CCc1c(C)nc2cc(-c3ccccc3)nn2c1C` (stereo not given), -3.12% (inactive); that for `O=c1c2ccccc2oc2cc(C#CC3(O)CCCCC3)ccc12`, 6.95% (inactive).
Still for that read-out and setting: in the case of `COc1ccccc1CNC(=O)C[C@@H]1CC[C@H]2[C@@H](COC[C@H](O)CN2C(=O)Nc2ccc(C(F)(F)F)cc2)O1` it was -9.47% (inactive); in that of `COc1cc(OC)cc(-c2cc3nc(C)c(CCC(=O)O)c(C)n3n2)c1`, 0.866% (inactive); in that of `C[C@@H]1CN([C@H](C)CO)C(=O)c2cc(NS(=O)(=O)c3ccc(Cl)cc3)ccc2O[C@@H]1CN(C)Cc1ccc(Cl)c(Cl)c1`, -17.2% (inactive).
As for `O=C(O)c1ccc(N/N=C/c2c(F)cccc2Cl)cc1`, in assay [1], the activity change, negative = cytotoxicity was -4.19% (inactive).
The same measure, in the same setting: the result for `O=C(O)c1ccc2cc(-c3ccccc3)[nH]c2c1` reads -2.41% (inactive); that for `O=C(CNC(c1ccccc1)c1ccccc1)Nc1ccccc1-c1ccccc1`, -1.93% (inactive); that for `C[C@@H]1CCCCO[C@@H](CN(C)C(=O)Cc2ccccc2)[C@@H](C)CN([C@@H](C)CO)C(=O)c2cc(NS(=O)(=O)c3ccc(F)cc3)ccc2O1`, 7.89% (inactive).
On to `C=CC[n+]1c(-c2ccc(C)cc2)csc1Nc1ccc(NC(C)=O)cc1`, for which the activity change, negative = cytotoxicity in assay [1] was -9.93% (inactive).
Consider `O=C(Nc1ccc(NC(=O)c2cc3ccccc3o2)cc1)c1ccc2c(c1)OCCO2`, for which the activity change, negative = cytotoxicity in assay [1] was 7.76% (inactive).
On the same count and under the same terms, the result for `COc1cc(/C=N/NS(=O)(=O)c2ccc3ccccc3c2)ccc1OCc1ccc(C(=O)O)cc1` reads 0.172% (inactive); that for `O=C(CNC(=O)Cc1ccccc1)N=Nc1c(O)n(Cc2ccc3c(c2)OCO3)c2ccccc12`, -1.52% (inactive); that for `CCNC(=O)c1cccc(S(=O)(=O)N2CCCCCC2)c1`, 0.705% (inactive).
On to `CCN1/C(=C/C=C/c2oc3ccc(-c4ccccc4)cc3[n+]2CC)Oc2ccc(-c3ccccc3)cc21`, for which the AC35 in assay [2] is 1980 nM.
On the same count and under the same terms, the result for `Cc1nc(N)nc(N)c1CCCc1ccc(Cl)c(Cl)c1` reads 2800 nM.
